Measurements from ChEMBL document CHEMBL1156210, “Discovery of tertiary sulfonamides as potent liver X receptor antagonists” (J Med Chem, 2010).
Active and inactive are the calls of the source. No cut-off for these calls is given here.

Key:
[1] = target: T1, Oxysterols receptor LXR-alpha (Homo sapiens, UniProt Q13133); test: (§1) Agonist activity at LXRalpha ligand binding domain-mediated transcriptional activity in african green monkey CV1 cells co-transfected with Gal4-SRC1 by luciferase reporter assay; type: cell-based, CV-1
T1 sequence (Q13133 whole entry): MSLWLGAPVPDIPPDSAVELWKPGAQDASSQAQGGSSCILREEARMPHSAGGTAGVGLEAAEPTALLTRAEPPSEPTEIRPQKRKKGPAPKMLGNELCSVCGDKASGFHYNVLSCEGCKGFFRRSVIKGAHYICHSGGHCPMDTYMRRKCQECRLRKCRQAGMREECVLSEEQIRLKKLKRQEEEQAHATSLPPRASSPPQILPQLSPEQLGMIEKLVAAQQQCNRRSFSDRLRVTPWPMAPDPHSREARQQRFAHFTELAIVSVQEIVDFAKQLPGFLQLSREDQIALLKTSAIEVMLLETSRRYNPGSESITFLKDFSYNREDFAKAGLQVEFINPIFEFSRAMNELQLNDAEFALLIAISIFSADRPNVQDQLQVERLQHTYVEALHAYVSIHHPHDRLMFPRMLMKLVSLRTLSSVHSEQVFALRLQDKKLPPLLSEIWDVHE

[2] = target: T2, Oxysterols receptor LXR-beta (Homo sapiens, UniProt P55055); test: Displacement of [N-methyl-3H]T1317 from human biotinylated LXRbeta LBD after 3 hrs by LEAD seeker binding assay
[3] = target: T2, Oxysterols receptor LXR-beta; test: Agonist activity at LXRbeta ligand binding domain-mediated transcriptional activity in african green monkey CV1 cells co-transfected with Gal4-SRC1 by luciferase reporter assay; type: cell-based, CV-1
[4] = target: T3, Oxysterols receptor LXR-alpha (Homo sapiens) (UniProt Q13133); test: as §1; type: cell-based; settings: CV-1
T3 sequence (whole entry): T1 sequence (Q13133 whole entry)

HepG2 [5] = test: Inhibition of GW-3965-induced SREBP-1c expression in human HepG2 cells; type: functional, cell-based
THP-1 = test: Inhibition of ABCA1 expression in human THP1 cells; type: functional, cell-based
HepG2 [6] = test: Inhibition of SREBP-1c expression in human HepG2 cells; type: functional, cell-based
[7] = target: T2, Oxysterols receptor LXR-beta; settings: CV-1
HepG2 [8] = test: Inhibition of basal triglyceride level in human HepG2 cells

T2 sequence (P55055 whole entry, the tested form may be a part): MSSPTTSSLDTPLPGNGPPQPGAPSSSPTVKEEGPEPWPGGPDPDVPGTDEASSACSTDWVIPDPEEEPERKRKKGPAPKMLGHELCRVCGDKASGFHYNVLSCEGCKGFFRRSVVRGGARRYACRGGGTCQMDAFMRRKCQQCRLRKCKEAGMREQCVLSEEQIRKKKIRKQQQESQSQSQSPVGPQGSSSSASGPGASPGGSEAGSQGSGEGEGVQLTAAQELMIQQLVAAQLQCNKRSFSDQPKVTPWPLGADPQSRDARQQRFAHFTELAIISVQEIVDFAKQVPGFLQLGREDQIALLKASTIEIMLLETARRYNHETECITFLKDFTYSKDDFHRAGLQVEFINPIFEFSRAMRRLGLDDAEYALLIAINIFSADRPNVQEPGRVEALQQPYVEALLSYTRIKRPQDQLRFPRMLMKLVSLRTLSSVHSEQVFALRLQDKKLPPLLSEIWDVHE

EC50 [1] | IC50 [2] | SMILES | other results
12.6 nM |  | Cc1ccccc1S(=O)(=O)N(Cc1ccc(-c2cccc(S(C)(=O)=O)c2)cc1)Cc1c(F)cccc1Cl | 
 | > 10000 nM | O=C(c1ccccc1)N(Cc1ccc(-c2ccccc2)cc1)Cc1ccc(F)cc1Cl | 
100 nM |  | CS(=O)(=O)c1cccc(-c2ccc(CN(Cc3c(F)cccc3Cl)S(=O)(=O)C3CC3)cc2)c1 | 
6.31 nM |  | CS(=O)(=O)c1cccc(-c2ccc(CN(Cc3c(F)cccc3Cl)S(=O)(=O)c3ccccc3)cc2)c1 | 
79.4 nM |  | Cc1cc(C)c(S(=O)(=O)N(Cc2ccc(-c3cccc(S(C)(=O)=O)c3)cc2)Cc2c(F)cccc2Cl)c(C)c1 | 
 | > 10000 nM | Fc1ccc(CN(Cc2ccccc2)Cc2ccc(-c3ccccc3)cc2)c(Cl)c1 | 
126 nM |  | Cc1cc(C)c(S(=O)(=O)N(Cc2ccc(-c3cccc(S(C)(=O)=O)c3)cc2)Cc2ccc(F)cc2Cl)c(C)c1 | 
 | 19.9 nM | O=C(O)Cc1cccc(OCCCN(Cc2cccc(C(F)(F)F)c2Cl)CC(c2ccccc2)c2ccccc2)c1 | EC50 [3]: 100 nM
 | 31.6 nM | Cc1cc(C)c(S(=O)(=O)N(Cc2ccc(-c3cccc(S(C)(=O)=O)c3)cc2)Cc2ccc(C(F)(F)F)o2)c(C)c1 | pEC50 [4]: inactive; Activity (HepG2 [5]): Dose-dependent effect; IC50 (THP-1): < 100 nM; IC50 (HepG2 [6]): < 100 nM; pEC50 [7]: inactive; Activity (HepG2 [8]): Active
79.4 nM |  | Cn1cnc(S(=O)(=O)N(Cc2ccc(-c3cccc(S(C)(=O)=O)c3)cc2)Cc2c(F)cccc2Cl)c1 | 
10 nM |  | CS(=O)(=O)c1cccc(-c2ccc(CN(Cc3ccc(F)cc3Cl)S(=O)(=O)c3ccccc3)cc2)c1 | 
